Speed of sound, mass density and refractive index data for seven molecules are collected here from the NIST ThermoML archive (doi:10.1016/j.tca.2016.03.026).

Numbers after ± are expanded uncertainties.

For series [1] the following is noted: 100 kPa, Liquid; for speed of sound: Frequency=3 MHz, Sing-around technique in a fixed-path interferometer; for mass density: Vibrating tube method.
Series [2] is described as follows: refractive index (Na D-line) (dimensionless). As to conditions: 100 kPa, Liquid, Standard Abbe refractometry.
The nature of series [3]: xn = mol fraction of the nth substance listed. The following applies: 100 kPa, Liquid, x2 = 0; for speed of sound: Frequency=3 MHz, Sing-around technique in a fixed-path interferometer; for mass density: Vibrating tube method.
A short description of series [4]: refractive index (Na D-line) (dimensionless); xn = mol fraction of the nth substance listed. As to conditions: 100 kPa, Liquid, Standard Abbe refractometry, x2 = 0.

In the case of `CCCCCCCC[n+]1ccn(C)c1.F[B-](F)(F)F` [1-methyl-3-octylimidazolium tetrafluoroborate], the speed of sound worked out at 1485.1 ± 2.3 m/s in series [1] (298.15 K), 1458.5 ± 2.3 m/s in series [1] (308.15 K) and 1433.2 ± 2.3 m/s in series [1] (318.15 K). For the same molecule, the mass density in series [1] (298.15 K) is reported as 1105.02 ± 1.1 kg/m3; in series [1] (308.15 K), 1098.32 ± 1 kg/m3; in series [1] (318.15 K), 1091.54 ± 1 kg/m3. Moreover, the refractive index in series [2] (298.15 K) came out at 1.43253 ± 0.0017; in series [2] (308.15 K), 1.42984 ± 0.0017; in series [2] (318.15 K), 1.42715 ± 0.0017.
Take `CC(C)CO` [2-methyl-1-propanol]: the speed of sound in series [1] (298.15 K) is 1189 ± 1.4 m/s; in series [1] (308.15 K) it was 1155.9 ± 1.3 m/s; in series [1] (318.15 K), 1118.6 ± 1.3 m/s. For the same molecule, the mass density in series [1] (298.15 K) stood at 797.82 ± 0.22 kg/m3; in series [1] (308.15 K), 790.63 ± 0.23 kg/m3; in series [1] (318.15 K) it was 781.98 ± 0.23 kg/m3. Besides, the refractive index in series [2] (298.15 K) was determined as 1.39408 ± 0.0016; in series [2] (308.15 K), 1.38925 ± 0.0016; in series [2] (318.15 K), 1.38444 ± 0.0016.
`CC(C)CO` [2-methyl-1-propanol] + CCCCCCCC[n+]1ccn(C)c1.F[B-](F)(F)F: the speed of sound in series [3] (298.15 K) is 1189 ± 1.4 m/s; in series [3] (308.15 K), 1155.9 ± 1.3 m/s; in series [3] (318.15 K), 1118.6 ± 1.3 m/s. The mass density was found to be 797.82 ± 0.22 kg/m3 in series [3] (298.15 K), 790.63 ± 0.23 kg/m3 in series [3] (308.15 K) and 781.98 ± 0.23 kg/m3 in series [3] (318.15 K). Besides, the results for the refractive index in series [4] (298.15 K), in series [4] (308.15 K) and in series [4] (318.15 K) were 1.39408 ± 0.0016, 1.38925 ± 0.0016 and 1.38444 ± 0.0016, respectively.
Regarding `CC(C)(C)O` [2-methylpropan-2-ol], the speed of sound worked out at 1121.4 ± 1.3 m/s in series [1] (298.15 K), 1082 ± 1.3 m/s in series [1] (308.15 K) and 1038.2 ± 1.3 m/s in series [1] (318.15 K). In addition, the mass density was 780.72 ± 0.23 kg/m3 in series [1] (298.15 K), 770.21 ± 0.23 kg/m3 in series [1] (308.15 K) and 759.5 ± 0.23 kg/m3 in series [1] (318.15 K). Besides, the values for the refractive index in series [2] (298.15 K), in series [2] (308.15 K) and in series [2] (318.15 K) were 1.38488 ± 0.0016, 1.37985 ± 0.0016 and 1.37402 ± 0.0016, respectively.
For `CC(C)(C)O` [2-methylpropan-2-ol] + CCCCCCCC[n+]1ccn(C)c1.F[B-](F)(F)F, the figures for the speed of sound in series [3] (298.15 K), in series [3] (308.15 K) and in series [3] (318.15 K) were 1121.4 ± 1.3 m/s, 1082 ± 1.3 m/s and 1038.2 ± 1.3 m/s, respectively. In addition, the figures for the mass density in series [3] (298.15 K), in series [3] (308.15 K) and in series [3] (318.15 K) were 780.72 ± 0.23 kg/m3, 770.21 ± 0.23 kg/m3 and 759.5 ± 0.23 kg/m3, respectively. In addition, the refractive index in series [4] (298.15 K) turned out to be 1.38488 ± 0.0016; in series [4] (308.15 K), 1.37985 ± 0.0016; in series [4] (318.15 K), 1.37402 ± 0.0016.
`CCCCO` [butan-1-ol]: the values for the speed of sound in series [1] (298.15 K), in series [1] (308.15 K) and in series [1] (318.15 K) were 1242.4 ± 1.2 m/s, 1207.5 ± 1.2 m/s and 1171.5 ± 1.2 m/s, respectively. The mass density in series [1] (298.15 K) amounted to 805.76 ± 0.2 kg/m3; in series [1] (308.15 K), 798.05 ± 0.2 kg/m3; in series [1] (318.15 K), 790.21 ± 0.2 kg/m3. The refractive index is given as 1.39728 ± 0.0016 in series [2] (298.15 K), 1.39324 ± 0.0016 in series [2] (308.15 K) and 1.38911 ± 0.0016 in series [2] (318.15 K).
Turning to `CCCCO` [butan-1-ol] + CCCCCCCC[n+]1ccn(C)c1.F[B-](F)(F)F, the speed of sound in series [3] (298.15 K) is 1242.4 ± 1.2 m/s; in series [3] (308.15 K) it was 1207.5 ± 1.2 m/s; in series [3] (318.15 K) it was 1171.5 ± 1.2 m/s. Also, the results for the mass density in series [3] (298.15 K), in series [3] (308.15 K) and in series [3] (318.15 K) were 805.76 ± 0.2 kg/m3, 798.05 ± 0.2 kg/m3 and 790.21 ± 0.2 kg/m3, respectively. Further, the refractive index was determined as 1.39728 ± 0.0016 in series [4] (298.15 K), 1.39324 ± 0.0016 in series [4] (308.15 K) and 1.38911 ± 0.0016 in series [4] (318.15 K).
